Data from a melting point compilation (Tetko et al.; mined from patent text by program, amines drawn as free bases though some values may be those of a salt).

First: O=CCC(F)(F)CN1C(=O)c2ccccc2C1=O
Second: NN=C1c2ccccc2-c2ccc(F)cc21
The melting point of the first is lower: 76 to 78 °C for the first, 161 to 165 °C for the second.

Compared with `O=C(Nc1ccc2nc(CN3CCOCC3)ccc2c1)c1ccc(-c2ccc(Cl)cc2)cc1`, `Cc1ccccc1-c1ccc(C(=O)Nc2ccc3cc(CN4CCCC4)cnc3c2C)cc1` is lower in melting point: 236 to 238 °C for the first, 150 to 151 °C for the second.

Compared with `Cn1cc(C(=O)Nc2nc(-c3ccco3)c(C(=O)c3ccccc3)s2)ccc1=O`, `Cc1c(NC(=O)c2ccc(-c3ccccc3)c(F)c2)ccc2cc(CN3CCCC3)cnc12` is lower in melting point: 220 to 225 °C for the first, 156 to 158 °C for the second.

First: COc1ccc2cc(-n3c(C)nnc3C)cc(C)c2n1
Second: Cc1cc(-c2nnc3c4ccccc4c(OCc4cn(C)cn4)nn23)no1
The melting point of the first is higher: 211 to 213 °C for the first, 208 to 209 °C for the second.

First: O=C1CCC(C2CCCCC2)C(=O)C1 (centres undefined)
Second: CC(C)(O)CC(=O)N[C@H]1CC[C@H](CCN2CCN(c3nccc4c3CCO4)CC2)CC1
The melting point of the first is lower: 137 to 140 °C for the first, 208 °C for the second.

First: COc1ccc(C(O)CSCc2ccncc2)cc1 (centres undefined)
Second: CCOC(=O)c1cccc(CSc2nc(-c3ccc(OC)cc3)c(-c3ccc(OC)cc3)[nH]2)c1
The melting point of the first is lower: 70 to 72.5 °C for the first, 147 to 149 °C for the second.

Compared with `CC(=O)Nc1ccc(Oc2ccc(S(C)=O)cc2)cc1` (centres undefined), `CCOC(=O)c1csc(Cc2ccc(NC(=O)/C=C/c3cnn(C)c3-c3ccc(F)cc3)cc2)n1` is higher in melting point: 159 to 161 °C for the first, 189 to 190 °C for the second.

Compared with `CSc1nc2c(c(=O)[nH]1)CC2`, `O=C1CCC(=NNc2ccc(F)cc2)c2ncccc2N1` is higher in melting point: 215 °C for the first, 232 to 233 °C for the second.

First: CCc1ccc(Nc2nc3cc([N+](=O)[O-])ccc3o2)cc1
Second: CC(C)c1ccc(S(=O)(=O)Nc2nc(-c3cccc([N+](=O)[O-])c3)cs2)nc1
The melting point of the first is lower: 172 to 173 °C for the first, 208 to 210 °C for the second.

First: COc1cccc(-c2cncc(OC3SCC(O)C(O)C3O)c2)c1 (centres undefined)
Second: O=Cc1cc(O)ccc1-c1cccnc1
The melting point of the first is higher: 200 °C for the first, 182 to 184 °C for the second.

First: CC(C)(C)NC(=O)C(=O)C(C)(C)C
Second: CC(C)(C)c1cc(-c2nnc(NN)s2)cc(C(C)(C)C)c1O
The melting point of the first is lower: 65 °C for the first, 109 to 122 °C for the second.

First: CC(CO)N1c2ccccc2Sc2ccc(C(N)=S)cc21 (racemic)
Second: Cn1c2ccccc2c2cccc(N)c21
The melting point of the first is higher: 152 °C for the first, 90 to 92 °C for the second.

Compared with `c1ccc(-n2c(-c3ccc(-c4ccc(-c5nc6c7ccccc7c7ccccc7c6n5-c5ccccc5)cc4)cc3)nc3c4ccccc4c4ccccc4c32)cc1`, `O=C(O)CSC(c1ccccc1)(c1ccccc1)c1ccccc1` is lower in melting point: 402 °C for the first, 158 to 160 °C for the second.

First: CC1(C)SC2C(NC(=O)CNC(=O)c3ccccc3)C(=O)N2C1c1nnn[nH]1 (centres undefined)
Second: CCOC(=O)CC1SC2=Nc3ccccc3CN2C1=O (centres undefined)
The melting point of the first is lower: 85 to 93 °C for the first, 130 to 142 °C for the second.

First: COc1cc2c(cc1Nc1ncc(Cl)c(Nc3cc(C#N)ccc3OC)n1)CCN(CC(=O)N(C)C)CC2
Second: COc1cc2ncnc(Nc3cccc(Cl)c3F)c2cc1OC1CCN(C(=O)OC(C)(C)C)CC1
The melting point of the first is lower: 86 to 105 °C for the first, 192 to 194 °C for the second.

`COc1cccc(OC)c1C#CC(F)(F)F` and `Cn1cc(OS(C)(=O)=O)c(=O)c2ccc(OCC(F)(F)F)cc21` cannot be ordered by melting point: 110 to 111 °C for the first, 110 to 112 °C for the second.

Compared with `O=c1n(CO)c2cccnc2n1-c1ccc2c(c1)OCO2`, `NC(CN1C(=O)C2(COc3cc4c(cc32)OCO4)c2c(Cl)cccc21)=NO` (centres undefined) is lower in melting point: 268 °C for the first, 180 to 185 °C for the second.

Compared with `N#CC(=NNc1ccc(C2=NNC(=O)CC2)cc1)C(N)=C(C#N)C#N`, `N#Cc1ccc(NC(=O)CBr)cc1` is lower in melting point: greater than 300 °C for the first, 166 to 168 °C for the second.

First: COc1ccc(P2(=O)c3ccccc3CN2c2ccccc2)c(OC)c1 (centres undefined)
Second: COc1cc(Nc2nccc(-c3ccc(OCc4ccccc4)cc3)n2)cc(OC)c1OC
The melting point of the first is higher: 173 to 175 °C for the first, 171 to 172 °C for the second.

First: CC(C)c1cccc(C(C)C)c1NC(=O)NCC1=CCCc2ccccc21
Second: CCCc1nc2c(N)nc3cc(-c4ccccc4NC(C)=O)ccc3c2s1
The melting point of the first is lower: 170 to 171 °C for the first, 206 to 209 °C for the second.

First: O=S1(=O)C[C@H](O)[C@H](O)CS1
Second: CC1CC(C)CN(C(=O)c2ccc([N+](=O)[O-])cc2)C1 (centres undefined)
The melting point of the first is higher: 131 to 132 °C for the first, 120 to 125 °C for the second.

Compared with `CCOCN1C(C)=C(C(=O)O)C(c2cccc(Cl)c2Cl)C(C(=O)OC)=C1C` (single isomer, unassigned; (+)), `CCOC(=O)C(C)=C(CC)NC(=O)Nc1cc(C(=O)OC(C)C)c(Cl)cc1F` is higher in melting point: 129 to 131 °C for the first, 132 to 133 °C for the second.

First: O=Cc1ccc2c(c1)COC2=O
Second: Nc1ccc(-c2cc(=O)c3cccnc3o2)cc1
The melting point of the first is lower: 160 °C for the first, 254 to 255 °C for the second.

Compared with `CCOC(=O)c1cn(C)c2nc3cc(N4CC(N(C)C)C4)c(F)cc3cc2c1=O`, `CCOC(=O)C1=C(C)Nc2nccn2C1C` (centres undefined) is lower in melting point: 224 °C for the first, 185 to 186 °C for the second.

First: COC(=O)CCC(=O)OCc1cc(CCCCCOc2c(Cl)cc(C3=NCCO3)cc2Cl)on1
Second: O=C(NCc1ccc(Cl)cc1)c1cn2c3c(cc(CCCO)cc3c1=O)OCC2(CO)CO
The melting point of the first is lower: 39 to 41 °C for the first, 173 to 174 °C for the second.

Compared with `O=C1CC(c2cccc(Cl)c2)c2cc(C(=O)c3ccc(Cl)cc3)ccc2N1` (centres undefined), `N#Cc1ccc(Cl)cc1NC(=O)c1ccc(Br)cc1` is lower in melting point: 195 °C for the first, 151 to 152 °C for the second.

Compared with `c1ccc(-c2cnc(N3CCc4c([nH]c5ccccc45)C3C3Cc4ccccc4O3)nc2)nc1` (centres undefined), `c1ccc2c(c1)Cc1ccccc1N1CCNCC21` (centres undefined) is lower in melting point: 170 to 171 °C for the first, 128 to 130 °C for the second.

First: C=CCc1c(C)nc(C)nc1NCc1ccc(-c2ccccc2-c2nnn[nH]2)cc1
Second: Cc1noc(NS(=O)(=O)c2ccccc2-c2ccc(-c3ncco3)cc2CN(C)C(=O)c2ccc(Cl)cc2Cl)c1C
The melting point of the first is higher: 259 to 260 °C for the first, 134 to 142 °C for the second.

First: FC(F)(F)c1cccc(Oc2ccnc(-n3ccc(C(F)(F)F)n3)n2)c1
Second: Nc1cccc(Oc2cc(Oc3cccc(N)c3)cc(C(F)(F)F)c2)c1
The melting point of the first is lower: 72 to 73 °C for the first, 98 to 98.6 °C for the second.

First: O=C(/C=C/c1cccc(S(=O)(=O)N2CCN(C/C=C/c3ccccc3)CC2)c1)NO
Second: O=C(N[C@H]1CC[C@H](CCN2CCN(c3nccc4c3OCC4)CC2)CC1)c1ccc(-c2ccccc2)cc1
The melting point of the first is lower: 178 °C for the first, 220 °C for the second.

First: N#CSCCON=C(C(=O)O)c1csc(NC(c2ccccc2)(c2ccccc2)c2ccccc2)n1
Second: CN(C)CCOc1ccc(C(=C(c2ccccc2)C(F)(F)F)c2ccc(O)cc2)cc1
The melting point of the first is higher: 194 °C for the first, 149 to 155 °C for the second.

First: CN(CC(=O)O)S(=O)(=O)c1ccc(Cl)cc1
Second: O=S(=O)(NCC1CCOCC1)c1ccc(Cl)cc1
The melting point of the first is higher: 180 to 182 °C for the first, 118 to 119 °C for the second.

First: CC(=O)NCC(C)(C)c1ccc2nc(-c3ccncc3)[nH]c2c1
Second: CCOC(=O)C[C@H]1c2ccc(OC)cc2CC[C@H]1c1ccc(OC)cc1 (racemic)
The melting point of the first is higher: 219 to 225 °C for the first, 81 °C for the second.

First: C=CCOC[C@H](NC(=O)[C@@H](NC(=O)[C@H](Cc1ccc(OCC=C)cc1)NC(=O)OC(C)(C)C)C(C)C)C(=O)OC
Second: COc1c2c(c(OC)c(OC)c1OC)CC(CCCCOc1ccc(C(=O)O)cc1)C2
The melting point of the first is lower: 109 to 111 °C for the first, 136 to 138 °C for the second.

First: O=C(CSCCCCCCO)c1ccc2[nH]c(=O)[nH]c2c1
Second: CCCCCCCCc1ccc(C(=O)CBr)cc1
The melting point of the first is higher: 180 to 181 °C for the first, 33 to 34 °C for the second.

First: CCOC(=O)c1ccc(N)c(OCC#N)c1
Second: COC(=O)c1cc(CBr)cc(CBr)c1
The melting point of the first is higher: 140 to 142 °C for the first, 64 to 70 °C for the second.

First: CCC1(CC)CC(c2ccc(OC)c(OC)c2)=NN(C2CCN(C(=O)c3ccccc3OC)CC2)C1=O
Second: COc1ccc(C2=NN(C3CCSCC3)C(=O)[C@H]3CC=CC[C@@H]23)cc1OC (relative stereo)
The melting point of the first is higher: 160 to 162 °C for the first, 140 to 141 °C for the second.

Compared with `CN(C)C[C@@H]1C[C@H]1c1c[nH]c2ccc(C#N)cc12` (relative stereo), `N#Cc1ccc(C=Cc2ccccn2)cc1` is lower in melting point: 120 to 121 °C for the first, 98 °C for the second.

First: COC(=O)c1ccc(N(C)C)cn1
Second: COC(=O)c1csc(C)c1N
The melting point of the first is higher: 100 to 103 °C for the first, 78 °C for the second.

Compared with `Cc1nc2c(O)cccn2c(=O)c1Cc1ccccc1`, `Cc1cc(CCl)nc(Nc2ccccc2)n1` is lower in melting point: 124 to 125 °C for the first, 100 to 101 °C for the second.

First: NCC#CCCCC(=O)O
Second: CCCCc1nc(O)c(CC(=O)OCC)c(O)n1
The melting point of the first is lower: 180 to 183 °C for the first, 260 °C for the second.

First: CSc1cnc(NC(=O)c2cccc(OC(C)=O)c2)s1
Second: COC(=O)/C(C#N)=C/c1ccccc1
The melting point of the first is higher: 135 to 136 °C for the first, 90 to 91 °C for the second.

First: CN1C2CCC1CN(C(=O)c1ccc(-c3ccc(N)cc3)o1)C2
Second: Nc1cccc(-c2nc3sccn3c2-c2ccnc(N[C@@H]3CCCN(S(=O)(=O)c4ccc(Cl)cc4)C3)n2)c1
The melting point of the first is lower: 190 to 191 °C for the first, 226 to 228 °C for the second.

Compared with `Nc1nc2c(s1)CCN(CC=Cc1ccoc1)CC2`, `CC(/C=C/CN1CCc2cc3c(cc21)C(C)(C)CCC3(C)C)=C\C(=O)O` is higher in melting point: 130 to 136 °C for the first, 170 to 171 °C for the second.

Compared with `Cc1ccccc1C(Oc1cc(OCc2ccc3c(c2)OCO3)ccc1C#N)C(=O)O` (racemic), `O=C1C(=O)c2ccc(-c3ccccc3)cc2C2=C1SCC1(CCN(CC(O)COc3ccc(F)cc3)CC1)O2` (centres undefined) is higher in melting point: 52 to 56 °C for the first, 173 to 175 °C for the second.

First: CC(C)(C)OC(=O)N1CCN(c2ccc(-c3[nH]nc4c3C(=O)c3c(NC(=O)NN5CCOCC5)cccc3-4)cc2)CC1
Second: COc1ccc2c(C(=O)c3ccc(OC4CCCCC4n4ccnc4)cc3)c(-c3ccc(OCCN4CCCC4)cc3)sc2c1 (centres undefined)
The melting point of the first is higher: 242 °C for the first, 68 to 78 °C for the second.

First: CCNc1nc(C#N)c(C#N)nc1-c1cccc(F)c1
Second: CN1CCN(CC(=O)N2CC=C(c3cccc(C(F)(F)F)c3)n3ncc(C#N)c32)CC1
The melting point of the first is lower: 126 to 127 °C for the first, 178 to 180 °C for the second.

First: Cc1cc(S)n2nc(C(=O)NN)nc2n1
Second: CCC(CC)Nc1cc(C)nc(Nc2c(C)cc(C)cc2C)c1CC(C(=O)OC)C(=O)OC
The melting point of the first is higher: 221 to 222 °C for the first, 136 to 138 °C for the second.

Compared with `NC(CC(=O)O)c1ccccc1[N+](=O)[O-]` (centres undefined), `O=[N+]([O-])c1cnc2cc3c(cc2c1-c1ccccc1Cl)CCC3` is lower in melting point: 222 °C for the first, 175 to 176 °C for the second.

In the case of `CC(C)(C)[Si](C)(C)Oc1ccc(C(=O)Oc2ccc(C(=O)O)cn2)cc1C12CC3CC(CC(C3)C1)C2`, the melting point is reported as 188 to 190 °C.
